The results in this text go back to patent publication US9586969B2, “Microbiocidal heterobicyclic derivatives” (Syngenta Participations AG, priority 2014, dated 2017).

Series [1] concerns Botryotinia fuckeliana (Botrytis cinerea). The series can be described thus: Botryotinia fuckeliana (Botrytis cinerea) / liquid culture (Gray mould). The format is cell-based. The settings on record: 72 h, 200 ppm, liquid culture, 24° C., inhibition of growth determined photometrically 3-4 days after application, vs untreated control, read-out: disease control.
A further series deals with Fusarium culmorum. The series can be described thus: microbe, parasite or virus in culture. The format is cell-based. The settings on record: 72 h, read-out: disease control.
Another series has as its system Gaeumannomyces graminis. In words: Gaeumannomyces graminis / liquid culture (Take-all of cereals). The series is classed as cell-based. The settings on record: 96 h, read-out: disease control.
In series [2] the test system is Glomerella lagenarium (Colletotrichum lagenarium). In words: Glomerella lagenarium (Colletotrichum lagenarium) / liquid culture (Anthracnose). The settings on record: Colletotrichum orbiculare; 200 ppm; liquid culture, 24° C., inhibition of growth measured photometrically 3-4 days after application; vs untreated control; read-out: disease control. The format is cell-based.

In series [3] the test system is Monographella nivalis (Microdochium nivale). In words: Monographella nivalis (Microdochium nivale) / liquid culture (Foot rot cereals). The format is cell-based. The settings on record: 96 h, 200 ppm, liquid culture, 24° C., inhibition of growth determined photometrically 4-5 days after application, vs untreated control, read-out: disease control.
In series [4] the test system is Mycosphaerella graminicola (Septoria tritici). The series can be described thus: Mycosphaerella graminicola (Septoria tritici) / liquid culture (Septoria blotch). The format is cell-based. The settings on record: Zymoseptoria tritici, 96 h, read-out: disease control.
[5] abbreviates: liquid culture, 24° C., inhibition of growth determined photometrically 4-5 days after application, vs untreated control.

Where two headings read alike, the source gives them in different places.

Take `CC1(C)N=C(c2cnn3c(F)ccc3c2)c2cccc(F)c2C1(C)C` [E 2]: the inhibition of growth at 200 ppm (in series [1]; in the series with Fusarium culmorum; with Gaeumannomyces graminis (setting [5]); in series [2]; in series [3]) was no less than 80% each time.
Consider `CC1(C)Cc2c(F)cccc2C(c2cnn3cccc3c2)=N1` [E 3], for which the inhibition of growth at 200 ppm (in series [1]; with Fusarium culmorum; with Gaeumannomyces graminis (setting [5]); in series [2]; in series [3]; in series [4] (setting [5])) was no less than 80% throughout.
For the compound `CC1(C)Cc2c(Br)cccc2C(c2cnn3cccc3c2)=N1` [E 5], the inhibition of growth at 200 ppm (in series [1]; in the series with Fusarium culmorum; in series [2]; in series [3]; in series [4] (setting [5])) was no less than 80% in each case.
Turning to `CC1(C)Cc2c(F)cccc2C(c2cnn3c(F)cc(Br)c3c2)=N1` [E 15], the inhibition of growth at 200 ppm (in series [1]; in the series on Gaeumannomyces graminis (setting [5]); in series [2]; in series [3]; in series [4] (setting [5])) was no less than 80% throughout.
In the case of `Cc1cc(F)n2ncc(C3=NC(C)(C)Cc4c(F)cccc43)cc12` [E 18], the inhibition of growth at 200 ppm (in series [1]; with Gaeumannomyces graminis (setting [5]); in series [2]; in series [3]; in series [4] (setting [5])) was no less than 80% throughout.
For `CC1(C)N=C(c2cnn3c(F)cc(I)c3c2)c2cccc(F)c2C1(C)C` [E 24], the inhibition of growth at 200 ppm (in series [1]; in the series with Fusarium culmorum; in series [2]; in series [3]; in series [4] (setting [5])) was no less than 80% each time.
On to `C#Cc1cccc2c1CC(C)(C)N=C2c1cnn2c(F)ccc2c1` [E 27], for which the inhibition of growth at 200 ppm (in series [1]; in the series with Fusarium culmorum; with Gaeumannomyces graminis (setting [5]); in series [2]; in series [3]; in series [4] (setting [5])) was no less than 80% throughout.
For the compound `CC1(C)Cc2c(I)cccc2C(c2cnn3cccc3c2)=N1` [E 29], the inhibition of growth at 200 ppm (in series [1]; in the series on Fusarium culmorum; in series [2]; in series [3]; in series [4] (setting [5])) was no less than 80% each time.
As for `CC1(C)Cc2c(F)cccc2C(c2cnn3c(C#N)ccc3c2)=N1` [E 30, 3-(5-fluoro-3,3-dimethyl-4H-isoquinolin-1-yl)pyrrolo[1,2-b]pyridazine-7-carbonitrile], the melting point (usually the temperature, or range, at which the solid turns liquid) was in the range of 118 to 136 °C. The inhibition of growth at 200 ppm in series [1] is no less than 80%. For the same compound, the inhibition of growth at 200 ppm in the series on Fusarium culmorum was no less than 80%. For the same compound, in the series with Gaeumannomyces graminis (setting [5]), the inhibition of growth at 200 ppm is no less than 80%. The inhibition of growth at 200 ppm in series [2] is no less than 80%. For the same compound, in series [3], the inhibition of growth at 200 ppm is no less than 80%. Also, the inhibition of growth at 200 ppm in series [4] (setting [5]) was no less than 80%.
As for `CC1(C)N=C(c2cnn3c(I)cc(I)c3c2)c2cccc(F)c2C1(C)C` [E 38], the inhibition of growth at 200 ppm in series [1], in series [3] and in series [4] (setting [5]) was no less than 80% in each case.
In the case of `CC1(C)N=C(c2cnn3c(Br)ccc3c2)c2cccc(F)c2C1(C)C` [E 42], the inhibition of growth at 200 ppm (in series [1]; with Fusarium culmorum; with Gaeumannomyces graminis (setting [5]); in series [2]; in series [3]) was no less than 80% throughout.
For `CC1(C)Cc2c(Oc3ccccc3)cccc2C(c2cnn3cccc3c2)=N1` [E 60], the inhibition of growth at 200 ppm (in series [1]; in the series with Fusarium culmorum; in series [2]; in series [3]; in series [4] (setting [5])) was no less than 80% each time.
For the compound `CC1(C)N=C(c2cnn3c(C#N)cc(Br)c3c2)c2cccc(F)c2C1(F)F` [E 64, 5-bromo-3-(4,4,5-trifluoro-3,3-dimethyl-1-isoquinolyl)pyrrolo[1,2-b]pyridazine-7-carbonitrile], the melting point lay within 190 to 192 °C.
In the case of `CC1(C)N=C(c2cnn3c(C#N)ccc3c2)c2cccc(F)c2C1(F)F` [E 66, 3-(4,4,5-trifluoro-3,3-dimethyl-1-isoquinolyl)pyrrolo[1,2-b]pyridazine-7-carbonitrile], the melting point lay in the range of 214 to 216 °C. Also, the inhibition of growth at 200 ppm in series [1] was no less than 80%. In addition, the inhibition of growth at 200 ppm with Fusarium culmorum is no less than 80%. Besides, in series [2], the inhibition of growth at 200 ppm is no less than 80%. Also, the inhibition of growth at 200 ppm in series [3] was no less than 80%.
Take `CC1(C)N=C(c2cnn3c(F)c(F)cc3c2)c2cccc(F)c2C1(C)C` [E 75]: the inhibition of growth at 200 ppm (in series [1]; with Fusarium culmorum; in the series on Gaeumannomyces graminis (setting [5]); in series [2]) was no less than 80% in each case.
Turning to `CC1(C)N=C(c2cnn3c(Cl)ccc3c2)c2cccc(F)c2C1(C)C` [E 76], the inhibition of growth at 200 ppm (in the series with Fusarium culmorum; with Gaeumannomyces graminis; in series [4]) was no less than 80% throughout.
For `Cc1nn2c(Br)ccc2cc1C1=NC(C)(C)C(C)(C)c2c(F)cccc21` [E 84], the inhibition of growth at 200 ppm (in series [1]; in the series on Fusarium culmorum; with Gaeumannomyces graminis (setting [5]); in series [2]; in series [3]) was no less than 80% throughout.
